Reference: patent US8592486B2, “Compounds for inflammation and immune-related uses” (Synta Pharmaceuticals Corp., priority 2005, dated 2013)
Where a name gives a salt, the structure may show the parent alone. Read-outs that look alike come from different tables or passages of the source.

Assays:
IL-2 production = assay: Inhibition of IL-2 production in PHA-activated Jurkat cells (ELISA); format: cell-based, human; conditions: Homo sapiens, Jurkat cells, PHA 2.5 μg/mL, 20 hours, IL-2 ELISA, read-out: IC50 (inhibition of IL-2 production)
Procedure: Jurkat cells were placed in a 96 well plate (0.5 million cells per well in 1% FBS medium) then a test compound of this invention was added at different concentrations. After 10 minutes, the cells were activated with PHA (final concentration 2.5 μg/mL) and incubated for 20 hours at 37° C. under CO2. The final volume was 200 μL. Following incubation, the cells were centrifuged and the supernatants collected and stored at −70° C. prior to assaying for IL-2 production. A commercial ELISA kit (IL-2 Eli-pair, Diaclone Research, Besancon, France) was used to detect production of IL-2, from which dose response curves were obtained. The IC50 value was calculated as the concentration at which 50% of maximum IL-2 production after stimulation was inhibited versus a non-stimulation control.

[1] = tested on: degranulation in RBL cells; assay: Inhibition of degranulation in RBL cells; format: cell-based; conditions: Rattus norvegicus, anti-DNP IgE, read-out: IC50 (concentration which inhibits 50% of degranulation in RBL cells)
Procedure: The day before the assay was performed, RBL cells, that had been grown to confluence in a 96 well plate, were incubated at 37° C. for at least 2 hours. The medium was replaced in each well with 100 μL of fresh medium containing […] of anti-DNP IgE.
On the following day, the cells were washed once with PRS (2.6 mM glucose and 0.1% BSA) and 160 μL of PRS was added to each well. A test compound was added to a well in a 20 μL solution at 10× of the desired concentration and incubated for 20 to 40 minutes at 37° C. 20 μL of 10× mouse anti-IgE ([…]) was added. Maximum degranulation occurred between 15 to 40 minutes after addition of anti-IgE.

| Compound | IC50 (IL-2 production; Jurkat, 20 h) | IC50 [1] | IC50 (IL-2 production) | IC50 ([1]; RBL) |
| --- | --- | --- | --- | --- |
| COCCOC(=O)c1ccc(Cl)c(-c2ccc(NC(=O)c3c(F)cccc3F)cc2)c1 [Compound 2, 6-Chloro-4′-(2,6-difluoro-benzoylamino)-biphenyl-3-(carboxylic acid 2-methoxyethyl ester)] | 9 nM | 4850 nM |  |  |
| Cc1ccc(-c2ncco2)cc1-c1ccc(NC(=O)c2c(F)cccc2F)cc1 [Compound 3, 2,6-Difluoro-N-(2′-methyl-5′-oxazol-2-yl-biphenyl-4-yl)-bezamide] | 1.6 nM | 4500 nM |  |  |
| COc1ncc(Cl)cc1-c1ccc(NC(=O)c2c(F)cccc2F)cc1 [Compound 5, N-[4-(5-Chloro-2-methoxy-pyridin-3-yl)-phenyl]-2,6-difluoro-benzamide] | 1 nM | 1100 nM |  |  |
| Cc1ccc(-c2nnn[nH]2)cc1-c1ccc(NC(=O)c2c(F)cccc2F)cc1 [Compound 6, 2,6-Difluoro-N-[2′-methyl-5′-(1H-tetrazol-5-yl)-biphenyl-4-yl]-benzamide] | 9 nM | 5010 nM |  |  |
| COc1ncc(Cl)cc1-c1ccc(NC(=O)c2c(F)cccc2F)cc1 [Compound 8, N-[4-(5-Chloro-2-methoxy-pyridin-3-yl)-phenyl]-2,6-difluoro-benzamide, hydrochloride] |  |  | 13 nM | 520 nM |
| COC(=O)c1ccc(C)c(-c2ccc(NC(=O)c3ccncc3F)cc2)c1 [Compound 12, 4′-[(3-Fluoro-pyridine-4-carbonyl)-amino]-6-methyl-biphenyl-3-carboxylic acid methyl ester] | 5 nM | 480 nM |  |  |
| CSc1nnc(-c2ccc(C)c(-c3ccc(NC(=O)c4c(F)cncc4F)cc3)c2)n1C [Compound 75, 3,5-Difluoro-N-[2′-methyl-5′-(4-methyl-5-methylsulfanyl-4H-[1,2,4]triazol-3-yl)-biphenyl-4-yl]-isonicotinamide] | > 1000 nM |  |  |  |
| COc1ccc(CCCOC(Cn2ccnc2)c2ccc(OC)cc2)cc1 (centres unmarked) [SKF96365, reference compound] |  |  |  | > 20000 nM |

Second part, led by results:

| IC50 (IL-2 production; Jurkat, 20 h) | IC50 [1] | Compound | IC50 (IL-2 production) | IC50 ([1]; RBL) |
| --- | --- | --- | --- | --- |
| 2 nM | 1450 nM | COC(=O)c1ccc(C)c(-c2ccc(NC(=O)c3c(F)cncc3F)cc2)c1 [Compound 4, 4′-[(3,5-Difluoro-pyridine-4-cabonyl)-amino]-6-methyl-biphenyl-3-carboxylic acid methyl ester] |  |  |
| 7 nM | 1410 nM | Cc1cnccc1C(=O)Nc1ccc(-c2cc(-c3nccs3)ccc2C)cc1 [Compound 9, 3-Methyl-N-(2′-methyl-5′-thiazol-2-yl-biphenyl-4-yl)-isonicotinamide, HCl salt] |  |  |
| 13 nM |  | Cc1cnccc1C(=O)Nc1ccc(-c2cc(-c3nnco3)ccc2C)cc1 [Compound 70, 3-Methyl-N-[2′-methyl-5′-([1,3,4]oxadiazol-2-yl)-biphenyl-4-yl]-isonicotinamide] |  |  |
| 6 nM |  | Cc1ccc(-c2nnco2)cc1-c1ccc(NC(=O)c2ccncc2F)cc1 [Compound 71, 3-Fluoro-N-[2′-methyl-5′-([1,3,4]oxadiazol-2-yl)-biphenyl-4-yl]-isonicotinamide] |  |  |
| > 1000 nM |  | CSc1nnc(-c2ccc(C)c(-c3ccc(NC(=O)c4c(F)cccc4F)cc3)c2)n1C [Compound 72, 2,6-Difluoro-N-[2′-methyl-5′-(4-methyl-5-methylsulfanyl-4H-[1,2,4]triazol-3-yl)-biphenyl-4-yl]-benzamide] |  |  |
| > 1000 nM |  | CSc1nnc(-c2ccc(C)c(-c3ccc(NC(=O)c4ccncc4F)cc3)c2)n1C [Compound 73, 3-Fluoro-N-[2′-methyl-5′-(4-methyl-5-methylsulfanyl-4H-[1,2,4]triazol-3-yl)-biphenyl-4-yl]-isonicotinamide] |  |  |
| > 1000 nM |  | CSc1nnc(-c2ccc(C)c(-c3ccc(NC(=O)c4ccncc4C)cc3)c2)n1C [Compound 74, 3-Methyl-N-[2′-methyl-5′-(4-methyl-5-methylsulfanyl-4H-[1,2,4]triazol-3-yl)-biphenyl-4-yl]-isonicotinamide] |  |  |
| 7 nM |  | Cc1ccc(-c2nccs2)cc1-c1ccc(NC(=O)c2snnc2C)cc1 [Compound 76, 4-Methyl-[1,2,3]thiadazole-5-carboxylic acid [2′-methyl-5′-(thiazol-2-yl)-biphenyl-4-yl]-amide] |  |  |
| 10 nM |  | Cc1ccc(-c2cocn2)cc1-c1ccc(NC(=O)c2c(F)cccc2F)cc1 [Compound 77, 2,6-Difluoro-N-[2′-methyl-5′-(oxazol-4-yl)-biphenyl-4-yl]-benzamide] |  |  |
| 9 nM |  | Cc1ccc(-c2cocn2)cc1-c1ccc(NC(=O)c2ccncc2F)cc1 [Compound 78, 3-Fluoro-N-[2′-methyl-5′-(oxazol-4-yl)-biphenyl-4-yl]-isonicotinamide] |  |  |
